Key:
[1] = target: T1, Gastrin-releasing peptide receptor (Homo sapiens, UniProt P30550); assay: Displacement of [125I]-Tyr4-bombesin from GRP receptor in human PC3 cells after 1 hr by gamma-counting analysis; format: cell-based, PC-3
[2] = target: T1, Gastrin-releasing peptide receptor; assay: Displacement of [125I]-Tyr4-bombesin from GRP receptor in human PC3 cells; format: cell-based, PC-3
[3] = Half life of the compound in water; format: physicochemical
[4] = Drug metabolism in 0.9% NaCl assessed as compound hydrolysis; format: physicochemical
[5] = Drug metabolism in PBS buffer assessed as compound hydrolysis; format: physicochemical

T1 sequence (P30550 whole entry): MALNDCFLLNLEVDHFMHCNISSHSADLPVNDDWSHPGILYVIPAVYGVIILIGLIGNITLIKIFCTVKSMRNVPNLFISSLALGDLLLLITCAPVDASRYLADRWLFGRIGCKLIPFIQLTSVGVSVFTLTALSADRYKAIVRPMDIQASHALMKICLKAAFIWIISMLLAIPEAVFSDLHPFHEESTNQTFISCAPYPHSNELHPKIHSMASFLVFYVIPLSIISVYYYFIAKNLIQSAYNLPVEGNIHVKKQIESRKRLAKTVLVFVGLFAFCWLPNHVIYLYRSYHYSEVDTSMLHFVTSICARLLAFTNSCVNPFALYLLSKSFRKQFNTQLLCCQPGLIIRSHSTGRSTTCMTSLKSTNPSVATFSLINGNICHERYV

| IC50 [1] [nM] | IC50 [2] [nM] | half-life [3] [h] | Drug metabolism [4] | Drug metabolism [5] | Structure (SMILES) |
| --- | --- | --- | --- | --- | --- |
| 8.3 |  |  |  |  | CC(C)C[C@H](NC(=O)C[C@H](O)[C@H](CC(C)C)NC(=O)[C@H](Cc1cnc[nH]1)NC(=O)CN(C)C(=O)[C@@H](NC(=O)[C@H](C)NC(=O)[C@H](Cc1c[nH]c2ccccc12)NC(=O)[C@H](CCC(N)=O)NC(=O)CCCCNC(=O)[C@H](CS(=O)(=O)O)NC(=O)[C@H](CS(=O)(=O)O)NC(=O)Cc1ccc([Si](F)(C(C)(C)C)C(C)(C)C)cc1)C(C)C)C(N)=O |
|  |  | 16 |  |  | CC(C)(C)[Si](F)(CCn1cc(CC(N)C(=O)O)nn1)C(C)(C)C (centres undefined) |

Second part, the molecule before the results:

| Structure (SMILES) | IC50 [1] [nM] | IC50 [2] [nM] | half-life [3] [h] | Drug metabolism [4] | Drug metabolism [5] |
| --- | --- | --- | --- | --- | --- |
| CSCC[C@H](NC(=O)[C@H](CC(C)C)NC(=O)[C@H](Cc1cnc[nH]1)NC(=O)CNC(=O)[C@@H](NC(=O)[C@H](C)NC(=O)[C@H](Cc1c[nH]c2ccccc12)NC(=O)[C@H](CCC(N)=O)NC(=O)[C@H](CC(N)=O)NC(=O)CNC(=O)[C@H](CC(C)C)NC(=O)[C@H](CCCCNC(=O)c1ccc(F)cc1)NC(=O)[C@H](CCC(N)=O)NC(=O)[C@@H]1CCC(=O)N1)C(C)C)C(N)=O |  | 5.3 |  |  |  |
| CC(C)(C)[Si]([18F])(CCn1cc(CC(N)C(=O)O)nn1)C(C)(C)C (centres undefined) |  |  | 16 | Active | Active |
| CC(C)(C)[Si]([18F])(CCO)C(C)(C)C |  |  | 8 | Active | Active |
